Assay results taken from the NIST ThermoML archive (doi:10.1016/j.jct.2015.04.006).
Numbers after ± are expanded uncertainties.

Assay: mn = molality of the nth substance listed, in mol/kg
Conditions: 100 kPa, Liquid; for speed of sound: Frequency=3 MHz, Sing-around technique in a fixed-path interferometer; for mass density: Vibrating tube method

What does the source list for `CC[N+]1(C)CCOCC1.O=S(=O)([N-]S(=O)(=O)C(F)(F)F)C(F)(F)F` + C[S+](C)[O-]?
speed of sound (298.15 K, m1 = 0.01623): 1483.4 ± 1.2 m/s; speed of sound (298.15 K, m1 = 0.02434): 1482.8 ± 1.2 m/s; speed of sound (298.15 K, m1 = 0.03937): 1481.6 ± 1.2 m/s; speed of sound (298.15 K, m1 = 0.04917): 1480.9 ± 1.2 m/s; speed of sound (298.15 K, m1 = 0.063): 1479.8 ± 1.2 m/s; speed of sound (298.15 K, m1 = 0.07874): 1478.6 ± 1.2 m/s; speed of sound (298.15 K, m1 = 0.09932): 1477 ± 1.2 m/s; speed of sound (298.15 K, m1 = 0.1197): 1475.5 ± 1.2 m/s; speed of sound (298.15 K, m1 = 0.1515): 1473.2 ± 1.2 m/s; mass density (298.15 K, m1 = 0.01623): 1097.17 ± 0.26 kg/m3; mass density (298.15 K, m1 = 0.02434): 1098.11 ± 0.26 kg/m3; mass density (298.15 K, m1 = 0.03937): 1099.83 ± 0.26 kg/m3; mass density (298.15 K, m1 = 0.04917): 1100.95 ± 0.26 kg/m3; mass density (298.15 K, m1 = 0.063): 1102.51 ± 0.26 kg/m3; mass density (298.15 K, m1 = 0.07874): 1104.28 ± 0.26 kg/m3; mass density (298.15 K, m1 = 0.09932): 1106.57 ± 0.25 kg/m3; mass density (298.15 K, m1 = 0.1197): 1108.8 ± 0.25 kg/m3; mass density (298.15 K, m1 = 0.1515): 1112.25 ± 0.25 kg/m3; speed of sound (303.15 K, m1 = 0.01623): 1466.5 ± 1.2 m/s; speed of sound (303.15 K, m1 = 0.02434): 1465.9 ± 1.2 m/s; speed of sound (303.15 K, m1 = 0.03937): 1464.8 ± 1.2 m/s; speed of sound (303.15 K, m1 = 0.04917): 1464 ± 1.2 m/s; speed of sound (303.15 K, m1 = 0.063): 1463 ± 1.2 m/s; speed of sound (303.15 K, m1 = 0.07874): 1461.8 ± 1.2 m/s; speed of sound (303.15 K, m1 = 0.09932): 1460.3 ± 1.2 m/s; speed of sound (303.15 K, m1 = 0.1197): 1458.8 ± 1.2 m/s; speed of sound (303.15 K, m1 = 0.1515): 1456.5 ± 1.2 m/s; mass density (303.15 K, m1 = 0.01623): 1092.15 ± 0.26 kg/m3; mass density (303.15 K, m1 = 0.02434): 1093.09 ± 0.26 kg/m3; mass density (303.15 K, m1 = 0.03937): 1094.82 ± 0.26 kg/m3; mass density (303.15 K, m1 = 0.04917): 1095.93 ± 0.26 kg/m3; mass density (303.15 K, m1 = 0.063): 1097.5 ± 0.26 kg/m3; mass density (303.15 K, m1 = 0.07874): 1099.27 ± 0.26 kg/m3; mass density (303.15 K, m1 = 0.09932): 1101.56 ± 0.25 kg/m3; mass density (303.15 K, m1 = 0.1197): 1103.8 ± 0.25 kg/m3; mass density (303.15 K, m1 = 0.1515): 1107.24 ± 0.25 kg/m3; speed of sound (308.15 K, m1 = 0.01623): 1449.7 ± 1.2 m/s; speed of sound (308.15 K, m1 = 0.02434): 1449.1 ± 1.2 m/s; speed of sound (308.15 K, m1 = 0.03937): 1448 ± 1.2 m/s; speed of sound (308.15 K, m1 = 0.04917): 1447.3 ± 1.2 m/s; speed of sound (308.15 K, m1 = 0.063): 1446.3 ± 1.2 m/s; speed of sound (308.15 K, m1 = 0.07874): 1445.2 ± 1.2 m/s; speed of sound (308.15 K, m1 = 0.09932): 1443.7 ± 1.2 m/s; speed of sound (308.15 K, m1 = 0.1197): 1442.3 ± 1.2 m/s; speed of sound (308.15 K, m1 = 0.1515): 1440 ± 1.2 m/s; mass density (308.15 K, m1 = 0.01623): 1087.13 ± 0.26 kg/m3; mass density (308.15 K, m1 = 0.02434): 1088.07 ± 0.26 kg/m3; mass density (308.15 K, m1 = 0.03937): 1089.8 ± 0.26 kg/m3; mass density (308.15 K, m1 = 0.04917): 1090.92 ± 0.26 kg/m3; mass density (308.15 K, m1 = 0.063): 1092.49 ± 0.26 kg/m3; mass density (308.15 K, m1 = 0.07874): 1094.26 ± 0.25 kg/m3; mass density (308.15 K, m1 = 0.09932): 1096.55 ± 0.25 kg/m3; mass density (308.15 K, m1 = 0.1197): 1098.79 ± 0.25 kg/m3; mass density (308.15 K, m1 = 0.1515): 1102.24 ± 0.25 kg/m3; speed of sound (313.15 K, m1 = 0.01623): 1433 ± 1.2 m/s; speed of sound (313.15 K, m1 = 0.02434): 1432.4 ± 1.2 m/s; speed of sound (313.15 K, m1 = 0.03937): 1431.3 ± 1.2 m/s; speed of sound (313.15 K, m1 = 0.04917): 1430.7 ± 1.2 m/s; speed of sound (313.15 K, m1 = 0.063): 1429.7 ± 1.2 m/s; speed of sound (313.15 K, m1 = 0.07874): 1428.6 ± 1.2 m/s; speed of sound (313.15 K, m1 = 0.09932): 1427.2 ± 1.2 m/s; speed of sound (313.15 K, m1 = 0.1197): 1425.8 ± 1.2 m/s; speed of sound (313.15 K, m1 = 0.1515): 1423.6 ± 1.2 m/s; mass density (313.15 K, m1 = 0.01623): 1082.12 ± 0.26 kg/m3; mass density (313.15 K, m1 = 0.02434): 1083.06 ± 0.26 kg/m3; mass density (313.15 K, m1 = 0.03937): 1084.79 ± 0.26 kg/m3; mass density (313.15 K, m1 = 0.04917): 1085.91 ± 0.26 kg/m3; mass density (313.15 K, m1 = 0.063): 1087.48 ± 0.26 kg/m3; mass density (313.15 K, m1 = 0.07874): 1089.26 ± 0.25 kg/m3; mass density (313.15 K, m1 = 0.09932): 1091.55 ± 0.25 kg/m3; mass density (313.15 K, m1 = 0.1197): 1093.79 ± 0.25 kg/m3; mass density (313.15 K, m1 = 0.1515): 1097.25 ± 0.25 kg/m3; speed of sound (318.15 K, m1 = 0.01623): 1416.4 ± 1.2 m/s; speed of sound (318.15 K, m1 = 0.02434): 1415.9 ± 1.2 m/s; speed of sound (318.15 K, m1 = 0.03937): 1414.9 ± 1.2 m/s; speed of sound (318.15 K, m1 = 0.04917): 1414.2 ± 1.2 m/s; speed of sound (318.15 K, m1 = 0.063): 1413.3 ± 1.2 m/s; speed of sound (318.15 K, m1 = 0.07874): 1412.2 ± 1.2 m/s; speed of sound (318.15 K, m1 = 0.09932): 1410.8 ± 1.2 m/s; speed of sound (318.15 K, m1 = 0.1197): 1409.5 ± 1.2 m/s; speed of sound (318.15 K, m1 = 0.1515): 1407.4 ± 1.2 m/s; mass density (318.15 K, m1 = 0.01623): 1077.11 ± 0.26 kg/m3; mass density (318.15 K, m1 = 0.02434): 1078.05 ± 0.26 kg/m3; mass density (318.15 K, m1 = 0.03937): 1079.78 ± 0.26 kg/m3; mass density (318.15 K, m1 = 0.04917): 1080.9 ± 0.26 kg/m3; mass density (318.15 K, m1 = 0.063): 1082.47 ± 0.26 kg/m3; mass density (318.15 K, m1 = 0.07874): 1084.25 ± 0.25 kg/m3; mass density (318.15 K, m1 = 0.09932): 1086.55 ± 0.25 kg/m3; mass density (318.15 K, m1 = 0.1197): 1088.79 ± 0.25 kg/m3; mass density (318.15 K, m1 = 0.1515): 1092.25 ± 0.25 kg/m3
